Experimental data published in patent US20260125360A1, “HERBICIDAL IMIDAZOLE COMPOUNDS” (SYNGENTA CROP PROTECTION AG, priority 2022, published 2026).

Legend:
Assay type in all cases: in vivo
Conditions in all cases: 250 g/ha, evaluated after 13 days
[1] = test system: Echinochloa crus-galli (ECHCG); assay: Pre-emergence herbicide glasshouse test
How it was run: (§1)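 Damage rated 13 days after spraying on a five-point scale (1=0–20% … 5=81–100%). Compound applied at 250 g/ha by default, as aqueous spray from acetone/water 50:50 plus 0.5% Tween 20, to pots one day post-sowing (pre) or after 8 days of growth (post). Plants kept at 24/16 °C, 14 h light, 65% humidity, watered twice daily.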

[2] = test system: Amaranthus retoflexus (AMARE); assay: Pre-emergence herbicide glasshouse test
How it was run: as §1

[3] = test system: Amaranthus palmeri (AMAPA); assay: Pre-emergence herbicide glasshouse test
How it was run: as §1

[4] = test system: Ipomoea hederacea (IPOHE); assay: Pre-emergence herbicide glasshouse test
How it was run: as §1

[5] = test system: Echinochloa crus-galli (ECHCG); assay: Post-emergence herbicide glasshouse test
How it was run: as §1

[6] = test system: Amaranthus retoflexus (AMARE); assay: Post-emergence herbicide glasshouse test
How it was run: as §1

[7] = test system: Amaranthus palmeri (AMAPA); assay: Post-emergence herbicide glasshouse test
How it was run: as §1

[8] = test system: Ipomoea hederacea (IPOHE); assay: Post-emergence herbicide glasshouse test
How it was run: as §1

SMILES | percentage damage caused to the plant, ECHCG (five-point scale) [1] | percentage damage caused to the plant, AMARE (five-point scale) [2] | percentage damage caused to the plant, AMAPA (five-point scale) [3] | percentage damage caused to the plant, IPOHE (five-point scale) [4] | percentage damage caused to the plant, ECHCG (five-point scale) [5] | percentage damage caused to the plant, AMARE (five-point scale) [6] | percentage damage caused to the plant, AMAPA (five-point scale) [7] | percentage damage caused to the plant, IPOHE (five-point scale) [8]
FC(F)(F)c1cn(Cc2ccsn2)c(-c2ccc(Cl)nc2)n1 [Compound 1.077] | 1 (1=0-20%) | 5 (5=81-100%) | 5 (5=81-100%) | 1 (1=0-20%) | 1 (1=0-20%) | 4 (4=61-80%) | 4 (4=61-80%) | 1 (1=0-20%)
Cn1nc(Cn2cc(C(F)(F)F)nc2-c2ccc(Cl)nc2)cc1Cl [Compound 1.084] | 3 (3=41-60%) | 5 (5=81-100%) | 5 (5=81-100%) | 5 (5=81-100%) | 1 (1=0-20%) | 4 (4=61-80%) | 4 (4=61-80%) | 4 (4=61-80%)
CCn1nnc(Cn2cc(C(F)(F)F)nc2-c2ccc(Cl)nc2)n1 [Compound 1.086] | 5 (5=81-100%) | 5 (5=81-100%) | 5 (5=81-100%) | 5 (5=81-100%) | 5 (5=81-100%) | 5 (5=81-100%) | 5 (5=81-100%) | 5 (5=81-100%)
Cn1cnc(Cn2cc(C(F)(F)F)nc2-c2ccc(Cl)nc2)n1 [Compound 1.087] | 5 (5=81-100%) | 5 (5=81-100%) | 5 (5=81-100%) | 5 (5=81-100%) | 5 (5=81-100%) | 5 (5=81-100%) | 5 (5=81-100%) | 5 (5=81-100%)
CCc1nc(Cn2cc(C(F)(F)F)nc2-c2ccc(Cl)nc2)no1 [Compound 1.090] | 4 (4=61-80%) | 5 (5=81-100%) | 5 (5=81-100%) | 5 (5=81-100%) | 4 (4=61-80%) | 5 (5=81-100%) | 5 (5=81-100%) | 5 (5=81-100%)
CCc1cnc(Cn2cc(C(F)(F)F)nc2-c2ccc(Cl)nc2)o1 [Compound 1.092] | 5 (5=81-100%) | 5 (5=81-100%) | 5 (5=81-100%) | 5 (5=81-100%) | 5 (5=81-100%) | 4 (4=61-80%) | 4 (4=61-80%) | 4 (4=61-80%)
